According to ChEMBL document CHEMBL1151072, “Benzoxepin and benzothiepin derivatives as potent, orally active inhibitors of 5-lipoxygenase” (Bioorg Med Chem Lett, 1994):

Experiments:
[1] = system: Canis familiaris; assay: Inhibitory activity against LTB4 production upon oral administration at a dose of 1.0 mg/Kg (1 hour) in dog ex vivo model; assay type: functional; conditions: Canis lupus familiaris
[2] = system: Canis familiaris; assay: Inhibitory activity against LTB4 production upon intravenous administration at a dose of 1.0 mg/Kg (0.25-0.5 hour) in dog ex vivo model; assay type: functional; conditions: Canis lupus familiaris
[3] = system: Canis familiaris; assay: Duration of action on LTB4 production upon intravenous administration at a dose of 1.0 mg/Kg in dog ex vivo model; assay type: functional, Canis lupus familiaris
[4] = system: Canis familiaris; assay: Duration of action on LTB4 production upon oral administration at a dose of 1.0 mg/Kg in dog ex vivo model; assay type: functional, Canis lupus familiaris
[5] = system: Canis familiaris; assay: Inhibitory activity against LTB4 production upon intravenous administration at a dose of 1.0 mg/Kg (0.08-1 hour) in dog ex vivo model; assay type: functional; conditions: Canis lupus familiaris
[6] = system: Canis familiaris; assay: Inhibitory activity against LTB4 production upon oral administration at a dose of 1.0 mg/Kg (0.5-1 hour) in dog ex vivo model; assay type: functional; conditions: Canis lupus familiaris
[7] = system: Canis familiaris; assay: Inhibitory activity against LTB4 production upon intravenous administration at a dose of 1.0 mg/Kg (0.08-0.5 hour) in dog ex vivo model; assay type: functional; conditions: Canis lupus familiaris
[8] = system: Canis familiaris; assay: Inhibitory activity against LTB4 production upon intravenous administration at a dose of 1.0 mg/Kg (0.08-6.0 hour) in dog ex vivo model; assay type: functional; conditions: Canis lupus familiaris
[9] = system: Canis familiaris; assay: Inhibitory activity against LTB4 production upon oral administration at a dose of 1.0 mg/Kg (0.08-6.0 hour) in dog ex vivo model; assay type: functional; conditions: Canis lupus familiaris
[10] = system: Canis familiaris; assay: Inhibitory activity against LTB4 production upon oral administration at a dose of 1.0 mg/Kg (0.5 hours) in dog ex vivo model; assay type: functional; conditions: Canis lupus familiaris
[11] = system: Canis familiaris; assay: Inhibitory activity against LTB4 production upon intravenous administration at a dose of 1.0 mg/Kg (3 hours) in dog ex vivo model; assay type: functional; conditions: Canis lupus familiaris
[12] = system: Canis familiaris; assay: Inhibitory activity against LTB4 production upon oral administration at a dose of 1.0 mg/Kg (0.25-6.0 hour) in dog ex vivo model; assay type: functional; conditions: Canis lupus familiaris
[13] = system: Canis familiaris; assay: Inhibitory activity against LTB4 production upon intravenous administration at a dose of 1.0 mg/Kg (0.08 hours) in dog ex vivo model; assay type: functional; conditions: Canis lupus familiaris

In the case of NC(=O)N(O)CC1=Cc2cc(Oc3ccc(F)cc3)ccc2OCC1, the inhibition in vivo at 1 mg/kg [1] is reported as > 95%, the inhibition in vivo at 1 mg/kg [2] is reported as > 95% and the Duration of action [3] is reported as >24. For the same compound, the Duration of action [4] was 10.
In the case of NC(=O)N(O)CC1=Cc2cc(Oc3ccccc3)ccc2SCC1, the Duration of action [3] is reported as 2.8 and the inhibition in vivo at 1 mg/kg [5] is reported as > 95%.
With CC(c1cc2ccccc2s1)N(O)C(N)=O (stereo unspecified) [ZILEUTON] the inhibition in vivo at 1 mg/kg [6] was > 90% and the inhibition in vivo at 1 mg/kg [7] was > 90%.
For NC(=O)N(O)CC1=Cc2cc(Oc3ccccc3)ccc2OC1, the inhibition in vivo at 1 mg/kg [8] was > 95% and the inhibition in vivo at 1 mg/kg [9] was > 95%.
In the case of NC(=O)N(O)CC1=Cc2cc(Oc3ccccc3)ccc2OCC1, the inhibition in vivo at 1 mg/kg [10] is reported as 94%, the inhibition in vivo at 1 mg/kg [11] is reported as 80% and the Duration of action [3] is reported as 19.4. The Duration of action [4] was 9.1.
With CNC(=O)N(O)CC1=Cc2cc(Oc3ccc(F)cc3)ccc2OCC1 the inhibition in vivo at 1 mg/kg [12] was > 95%, the Duration of action [3] was 13 and the inhibition in vivo at 1 mg/kg [5] was > 95%. It also gave a Duration of action [4] of 13.
NC(=O)N(O)CC1=Cc2ccc(Oc3ccccc3)cc2OCC1 was tested, and the inhibition in vivo at 1 mg/kg [1] was 28%, the inhibition in vivo at 1 mg/kg [13] was > 95% and the Duration of action [3] was 1.1.
